Experimental data taken from US20060276385A1, “Anti-inflammatory agents and methods of their use” (priority 2003, published 2006).

Key:
[1] = system: MAE-p47−/− cells; assay: Monocyte adhesion to p47phox-null endothelial cells, with or without p47phox transfection; assay type: cell-based, mouse; conditions: 18 hrs
Experimental: Endothelial cells: Mouse aortic endothelial cells (MAEC) were cultured and used at passages 4-8 as described (Cai, H., et al. (2002) J Bio Chem 107, 48311-48317). Human aortic endothelial cells (HAEC) purchased from Clonetics were cultured using EGM-2 bullet kit (Clonetics) and used at passages 4-8. Alternatively, endothelial cells obtained from the thoracic aortas of C57/BL6 control (MAE-wt) and p47^phox-null mice (MAE-p47^−/−) were isolated and cultured as described previously (Hwang, J. et al. (2003) J Biol Chem 278:47291-8), and used between passages 4-10.
Monocyte Adhesion: Monocyte binding was determined under no-flow conditions using THP-1 monocytes (ATCC) by the method described by Chappel et al (Chappell, D. C., et al. (1998) Circ Res 82, 532-539). Briefly, THP-1 cells (5×10^5 cells/ml) were labeled with a fluorescent dye 2′,7′-bis(carboxyethyl)-5(6)-carboxyfluorescein-AM (BCECF, Molecular Probes) (1 mg/ml) in serum-free RPMI medium for 45 min at 37° C. Following exposure to shear stress or BMP treatments in the presence or absence of noggin or vehicle, the endothelial cells were washed in RPMI medium before adding BCECF-loaded THP-1 cells (1:1 ratio). After a 30 min incubation at 37° C. under no-flow conditions, unbound monocytes were removed by washing the endothelial dishes 5 times with Hank's PBS. Bound monocytes were quantified by either counting the cells under a fluorescent microscope or by measuring the fluorescent intensity of cell lysates by fluorescence spectrophotometry using a plate reader. […] Some studies were performed with MAEC pretreated with 5 μg/ml of mouse-ICAM1 antibody (YN1, Southern Biolechonology) (Kevil, C. G., et al. (2001) Am J Physiol Cell Physiol 281, C1442-1447).
Transfection of p47phox: In some studies MAE-p47^−/− cells were trasnfected withp47phox expression vector or an empty vector as described (Hwang, J. et al. (2003) J Biol Chem278-47291-8).
Next, monocyte adhesion was determined in these cells. […] After 18 hrs, cells were washed and monocyte binding was determined as described in FIG. 7. […]

[2] = system: VCAM-1; assay: VCAM-1 expression in endothelial cells; assay type: cell-based, human
Experimental: Fluorescence activated cytometry sorting (FACS) analysis: Treated cells were dissociated into single cell suspensions using 0.25% trypsin-EDTA and resuspended in a FACS buffer (Hank's buffered solution containing 5% FBS). Aliquots of cell suspensions were incubated with ICAM-1 antibody (R&D Systems) for 20 min on ice, washed twice with FACS buffer, and incubated with secondary antibody (fluorescein-5-isothiocyanate- or phycoerytherin-conjugated, Chemicon) for 20 min on ice in the dark. Then samples were washed again, fixed in 1% paraformaldehyde and analyzed by FACS (Calibur, Becton-Dickinson) using CellQuest software. The fluorescence intensity of ICAM-1 and forward cell scattering of 30,000 cells were measured and the geometric means calculated from histograms were shown. In some studies, HAEC were transfected with either BMP4 cloned in a bi-cistronic pAdTrack CMV vector or an empty vector, both expressing green fluorescent protein (GFP), using Lipofectamine 2000. In these experiments, ICAM-1 expression was measured in the red phycoerytherin channel, while the green channel was used to monitor the […] expression-GFP expression was determined by FACS analysis and fluorescence microscopy (20-30% transfection efficiency). Because expression of GFP was similar among different treatment groups within the same experiment, it was unnecessary to normalize ICAM-1 expression data to GFP level. Human recombinant noggin was purchased from R&D Systems and used in all experiments at 50 ng/ml (Dale, L., and Jones, C. M. (1999) Bioessays 21, 751-760; Zimmerman, L. B., et al. (1996) Cell 86, 599-606; Brunei, L. J., et al. (1998) Science 280, 1455-1457).
(§1) HAEC treated with OS, BMP4 or static condition were analyzed by FACS using antibodies specific to VCAM-1 (C) and E-selectin (D) as described in panel A using TNFa (1OOU/ml, for 2 hr) as a positive control.

[3] = system: E-selectin; assay: E-selectin surface expression by FACS analysis in HAEC; assay type: cell-based, human; conditions: TNF-α 100 U/ml for 2 hr as positive control
Experimental: Fluorescence activated cytometry sorting (FACS) analysis: Treated cells were dissociated into single cell suspensions using 0.25% trypsin-EDTA and resuspended in a FACS buffer (Hank's buffered solution containing 5% FBS). Aliquots of cell suspensions were incubated with ICAM-1 antibody (R&D Systems) for 20 min on ice, washed twice with FACS buffer, and incubated with secondary antibody (fluorescein-5-isothiocyanate- or phycoerytherin-conjugated, Chemicon) for 20 min on ice in the dark. Then samples were washed again, fixed in 1% paraformaldehyde and analyzed by FACS (Calibur, Becton-Dickinson) using CellQuest software. The fluorescence intensity of ICAM-1 and forward cell scattering of 30,000 cells were measured and the geometric means calculated from histograms were shown. […] In these experiments, ICAM-1 expression was measured in the red phycoerytherin channel, while the green channel was used to monitor the […] expression-GFP expression was determined by FACS analysis and fluorescence microscopy (20-30% transfection efficiency). […]
as §1

[4] = system: NF-κB; assay: NF-κB assay with NF-κB-SEAP reporter construct; assay type: cell-based; conditions: NF-κB-SEAP co-transfected with BMP4 vector vs empty vector
Experimental: NF-κB assay: NF-κB activity was determined by using a NF-κB reporter construct, NF-κB-SEAP vector (lug, Clontech) expressing a secreted form of placental alkaline phosphatase driven by […] sequences in tandem. This construct was co-transfected with 0.5 μg of either pAdTrack BMP4 or empty vector control using Lipofectamine 2000. Six hours post transfection, conditioned media were centrifuged, heat-treated at 65° C. (to inactivate endogenous alkaline phosphatase) for 30 min, and followed by chemiluminescence alkaline phosphatase assay according to the manufacturer's instructions.
In this study, NF-κB-SEAP construct expressing a secreted form of placental alkaline phosphatase driven by 4 κB sequences in tandem was co-transfected with either BMP4 vector or empty vector control by a Lipofectamine method used above (FIG. 5F).

[5] = system: MAE-wt cells; assay: O2− assay by electron spin resonance spectroscopy with CMH spin probe; assay type: cell-based, mouse; conditions: MAE-wt cells, BMP4 200 ng/ml for 18 hrs, SOD-inhibitable CM signal
Experimental: O2^− Assay: O2^− production was determined by electron spin resonance spectroscopy using methoxycarbonyl-2,2,5,5-tetramethyl-pyrrolidine (CMH) as a spin probe in the presence or absence of PEG-superoxide dismutase (PEG-SOD; 50 U/ml) to quantify the SOD-inhibitable portions of CM.
In FIG. 10A immediately following treatment of MAE wt cells with BMP4 (200 ng/ml) for 18 hrs, cells were trypsinized and reconstituted in Krebs-Hepes buffer. Equal number of cells was incubated with a spin trap CMH in the presence or absence of PEG-SOD (50 U/mL). The specific O2^− production was calculated by subtracting SOD-inhibitable portions from total O2^− production as determined by following CM production (mean±SEM, n=3, *p<0.05).

## BMP4
[1]; MAE-p47−/− cells transfected with p47phox (rescued), BMP4 20 ng/ml or TNF-α 100 U/ml
  increase in monocyte adhesion above the control: 4- to 5 fold
[1]; MAE-p47−/− cells, BMP4 20 ng/ml
  monocyte adhesion response: failed to stimulate monocyte adhesion
[2]; FIG. 5E study, p>0.05, n=3
  effect on VCAM-1: marginal at best and not significant
[2]; HAEC, FACS, TNF-α 100 U/ml for 2 hr as positive control
  effect on surface expression of VCAM-1: neither OS nor BMP4 had any effect
[3]
  effect on surface expression of E-selectin: neither OS nor BMP4 had any effect
[4]
  NF-κB activity above controls: more than 3 fold
[5]
  O2− production above control: 2.9 fold
